Read-outs that look alike come from different tables or passages of the source.
Test: Ocular tissue concentrations (aqueous humor, vitreous humor, iris, retina, choroid, cornea) after topical ocular, subcutaneous and intravitreal administration
Format: in vivo, New Zealand White rabbits
Conditions: New Zealand White, rabbit; for concentration at 2 h / concentration at 4 h / concentration at 0.5 h / concentration at 1 h: subcutaneous, 5 mg/kg/dose, subcutaneous 5 mg/kg/dose; for concentration at 6 hr / concentration at 24 hr / concentration at 48 hr / concentration at 72 hr: other: intravitreal, 2.5 mg/eye
Procedure: To measure the concentration of Compound 1 in plasma and ocular tissues following topical ocular, subcutaneous, and intravitreal administration, New Zealand White rabbits were administered Compound 1, and plasma and ocular samples were collected at pre-determined time points. Compound 1 formulations were prepared fresh on each day of dosing.
Ocular tissue samples from both eyes of each animal were collected and weights were recorded. Plasma and ocular tissue sample concentrations of Compound 1 were determined by LC-MS/MS.
New Zealand White rabbits weighing 2.5 to 3.5 kg were used on this study. Rabbits were housed one per cage. Animals were not fasted and only healthy animals with no ocular illness were used. Two rabbits per group were sacrificed at each of four ocular tissue sampling time points for a total of eight rabbits per group.
Animals were anesthetized for ocular (topical) and intravitreal dosing following the 12IA7 IACUC protocol. Each rabbit received a bolus dose of test formulation either via topical ocular administration 3 times daily on Days 1 and 2 (at 0, 6, and 12 hours), and once on Day 3 (at 0 hours) into both eyes; via intravitreal administration into both eyes once on Day 1 (at 0 hours); or via subcutaneous administration 2 times daily on Days 1 and 2 (at 0 and 8 hours) and once daily on Day 3 (at 0 hours). Doses were given within an approximately 1 hour window each day where applicable.
On Day 1, for intravitreal administration, or on Day 3, for topical ocular and subcutaneous administration, at the appropriate ocular tissue collection time points, animals were euthanized and both eyes were enucleated immediately. Following enucleation, each eye was rinsed with phosphate-buffered saline. Ocular tissue samples from both eyes of each animal were collected at predetermined time points and weights were recorded. All the samples were frozen immediately on dry ice, and stored at −60° C. to −80° C. pending bioanalysis.
An LC-MS/MS method was developed for the determination of Compound 1 in rabbit aqueous tissues (plasma, aqueous and vitreous humor) and solid ocular tissue samples. A pre-study standard curve was analyzed to determine the specificity, range, and lower limit of quantitation of the method. Plasma and tissue homogenate study samples were extracted and analyzed. All the samples were treated identically to the standards.
One eight-point standard curve was used in each analytical batch. To be accepted, each batch must have had at least five of eight standards with accuracy within ±20% of nominal, except at the lower limit of quantification (LLOQ), where ±25% was acceptable.
Concentration versus time data is plotted in FIGS. 3-16. All data are expressed as ng/g of the free drug. Samples that were below the limit of quantitation (0.2 ng/mL) were not used in the calculation of averages.

[1] = choroid, TABLE 16: Choroid, free acid, Group 3, read-out: Choroid Average
[2] = cornea homogenate, Cornea homogenate, OD, sodium salt, intravitreal 2.5 mg/eye, Group 4, read-out: Cornea Conc. (ng/mL) OD
[3] = cornea homogenate, Cornea homogenate, OS, sodium salt, intravitreal 2.5 mg/eye, Group 4, read-out: Cornea Conc. (ng/mL) OS
[4] = cornea homogenate, Cornea homogenate, right eye, intravitreal 2.5 mg/eye (group 5), individual animals, read-out: Conc. (ng/mL) OD
[5] = cornea homogenate, Cornea homogenate, left eye, intravitreal 2.5 mg/eye (group 5), individual animals, read-out: Conc. (ng/mL) OS
[6] = cornea homogenate, Cornea homogenate, OD, free acid, Group 3, read-out: Cornea Conc. (ng/mL) OD
[7] = cornea homogenate, Cornea homogenate, OS, free acid, Group 3, read-out: Cornea Conc. (ng/mL) OS
[8] = cornea homogenate, Cornea homogenate, OS, sodium salt, Group 2, read-out: Cornea Conc. (ng/mL) OS
[9] = cornea homogenate, Cornea homogenate, OD, sodium salt, Group 2, read-out: Cornea Conc. (ng/mL) OD
[10] = cornea homogenate, TABLE 16: Cornea homogenate, OD, free acid, Group 3, read-out: Cornea Conc. (ng/mL) OD
[11] = cornea homogenate, TABLE 16: Cornea homogenate, OS, free acid, Group 3, read-out: Cornea Conc. (ng/mL) OS
[12] = cornea, Cornea, OD, sodium salt, intravitreal 2.5 mg/eye, Group 4, read-out: Cornea Conc. (ng/g) OD
[13] = cornea, Cornea, OS, sodium salt, intravitreal 2.5 mg/eye, Group 4, read-out: Cornea Conc. (ng/g) OS
[14] = cornea, Cornea, average, intravitreal 2.5 mg/eye (group 5), read-out: Avg.
[15] = cornea, Cornea, right eye, intravitreal 2.5 mg/eye (group 5), individual animals, read-out: Conc. (ng/g) OD
[16] = cornea, Cornea, sodium salt, intravitreal 2.5 mg/eye, Group 4, read-out: Cornea Avg.
[17] = cornea, Cornea, left eye, intravitreal 2.5 mg/eye (group 5), individual animals, read-out: Conc. (ng/g) OS
[18] = cornea, Cornea, OD, free acid, Group 3, read-out: Cornea Conc. (ng/g) OD
[19] = cornea, Cornea, OS, sodium salt, Group 2, read-out: Cornea Conc. (ng/g) OS
[20] = cornea, Cornea, free acid, Group 3, read-out: Cornea Average
[21] = cornea, Cornea, sodium salt, Group 2, read-out: Cornea Average
[22] = cornea, Cornea, OD, sodium salt, Group 2, read-out: Cornea Conc. (ng/g) OD
[23] = cornea, TABLE 16: Cornea, OD, free acid, Group 3, read-out: Cornea Conc. (ng/g) OD
[24] = cornea, TABLE 16: Cornea, free acid, Group 3, read-out: Cornea Average

concentration at 2 h (choroid, TABLE 16: Choroid, OS, free acid, Group 3, read-out: Choroid Conc. (ng/g) OS): 53.2 ng/g | concentration at 2 h [1]: 47.7 ng/g | concentration at 4 h (choroid, TABLE 16: Choroid, OD, free acid, Group 3, read-out: Choroid Conc. (ng/g) OD): 53 ng/g | concentration at 4 h [1]: 61 ng/g | concentration at 6 hr [2]: 6300 ng/mL | concentration at 6 hr [3]: 6940 ng/mL | concentration at 6 hr [4]: 7910 ng/mL | concentration at 24 hr [2]: 2180 ng/mL | concentration at 24 hr [3]: 1560 ng/mL | concentration at 24 hr [5]: 1190 ng/mL | concentration at 24 hr [4]: 1520 ng/mL | concentration at 48 hr [2]: 1050 ng/mL | concentration at 48 hr [3]: 662 ng/mL | concentration at 48 hr [5]: 293 ng/mL | concentration at 48 hr [4]: 437 ng/mL | concentration at 0.5 h [6]: 0.55 ng/mL | concentration at 0.5 h [7]: 0.897 ng/mL | concentration at 0.5 h [8]: 2.46 ng/mL | concentration at 1 h [6]: 1.11 ng/mL | concentration at 1 h [9]: 2.37 ng/mL | concentration at 1 h [8]: 4.52 ng/mL | concentration at 2 h [6]: 0.514 ng/mL | concentration at 2 h [8]: 0.998 ng/mL | concentration at 4 h [6]: 0.942 ng/mL | concentration at 4 h [9]: 0.752 ng/mL | concentration at 4 h [7]: 2.51 ng/mL | concentration at 4 h [8]: 0.784 ng/mL | concentration at 0.5 h [10]: 0.55 ng/mL | concentration at 0.5 h [11]: 0.897 ng/mL | concentration at 1 h [10]: 1.11 ng/mL | concentration at 2 h [10]: 0.514 ng/mL | concentration at 4 h [10]: 0.942 ng/mL | concentration at 4 h [11]: 2.51 ng/mL | concentration at 6 hr [12]: 69300 ng/g | concentration at 6 hr [13]: 76300 ng/g | concentration at 6 hr [14]: 54600 ng/g | concentration at 6 hr [15]: 87000 ng/g | concentration at 6 hr [16]: 71400 ng/g | concentration at 24 hr [12]: 24000 ng/g | concentration at 24 hr [13]: 17200 ng/g | concentration at 24 hr [14]: 17300 ng/g | concentration at 24 hr [17]: 13100 ng/g | concentration at 24 hr [15]: 16700 ng/g | concentration at 24 hr [16]: 23700 ng/g | concentration at 48 hr [12]: 11600 ng/g | concentration at 48 hr [13]: 7280 ng/g | concentration at 48 hr [14]: 4630 ng/g | concentration at 48 hr [17]: 3220 ng/g | concentration at 48 hr [15]: 4810 ng/g | concentration at 48 hr [16]: 7530 ng/g | concentration at 72 hr [14]: 762 ng/g | concentration at 72 hr [16]: 421 ng/g | concentration at 0.5 h [18]: 6.05 ng/g | concentration at 0.5 h (cornea, Cornea, OS, free acid, Group 3, read-out: Cornea Conc. (ng/g) OS): 9.87 ng/g | concentration at 0.5 h [19]: 27.1 ng/g | concentration at 0.5 h [20]: 7.96 ng/g | concentration at 0.5 h [21]: 19.4 ng/g | concentration at 1 h [18]: 12.2 ng/g | concentration at 1 h [22]: 26.1 ng/g | concentration at 1 h [19]: 25.3 ng/g | concentration at 1 h [20]: 12.2 ng/g | concentration at 1 h [21]: 31.1 ng/g | concentration at 2 h [18]: 5.65 ng/g | concentration at 2 h [22]: 11.7 ng/g | concentration at 2 h [19]: 11 ng/g | concentration at 2 h [20]: 5.65 ng/g | concentration at 2 h [21]: 9.45 ng/g | concentration at 4 h [18]: 10.4 ng/g | concentration at 4 h [22]: 8.27 ng/g | concentration at 4 h [19]: 8.62 ng/g | concentration at 4 h [20]: 15.8 ng/g | concentration at 4 h [21]: 10.1 ng/g | concentration at 0.5 h [23]: 6.05 ng/g | concentration at 0.5 h (cornea, TABLE 16: Cornea, OS, free acid, Group 3, read-out: Cornea Conc. (ng/g) OS): 9.87 ng/g | concentration at 0.5 h [24]: 7.96 ng/g | concentration at 1 h [23]: 12.2 ng/g | concentration at 1 h [24]: 12.2 ng/g | concentration at 2 h [23]: 5.65 ng/g | concentration at 2 h [24]: 5.65 ng/g
SMILES: COC(=O)N[C@@H](Cc1ccccc1)C(=O)N[C@@H](Cc1ccc(NS(=O)(=O)O)cc1)c1csc(-c2cccs2)n1 [Compound 1]

From patent publication US11666558B2, “Methods of treating intraocular pressure with activators of Tie-2” (EyePoint Pharmaceuticals, Inc., priority 2015, dated 2023)
